PubChem BioAssay (NCI)
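All cell lines were grown in 96-well plates and treated with compound for 48 hours. TGI: concentration producing complete growth inhibition.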

Experiments:
Test in all cases: NCI tumour cell line growth inhibition, 48 h
786-0 renal = test system: 786-0 renal
A498 renal = test system: A498 renal
A549 NSCLC = test system: A549 NSCLC
ACHN renal = test system: ACHN renal
BT-549 breast = test system: BT-549 breast
CAKI-1 renal = test system: CAKI-1 renal
CCRF-CEM leukemia = test system: CCRF-CEM leukemia
COLO 205 colon = test system: COLO 205 colon
DU-145 prostate = test system: DU-145 prostate
EKVX NSCLC = test system: EKVX NSCLC
HCC-2998 colon = test system: HCC-2998 colon
HCT-116 colon = test system: HCT-116 colon
HCT-15 colon = test system: HCT-15 colon
HOP-62 NSCLC = test system: HOP-62 NSCLC
HOP-92 NSCLC = test system: HOP-92 NSCLC
HT29 colon = test system: HT29 colon
IGROV1 ovarian = test system: IGROV1 ovarian
K-562 leukemia = test system: K-562 leukemia
KM12 colon = test system: KM12 colon
LOX IMVI melanoma = test system: LOX IMVI melanoma
M14 melanoma = test system: M14 melanoma
MALME-3M melanoma = test system: MALME-3M melanoma
MCF7 breast = test system: MCF7 breast
MDA-MB-231 breast = test system: MDA-MB-231 breast
MDA-MB-435 = test system: MDA-MB-435
MDA-N = test system: MDA-N
MOLT-4 leukemia = test system: MOLT-4 leukemia
NCI-H226 lung = test system: NCI-H226 lung
NCI-H23 lung = test system: NCI-H23 lung
NCI-H460 lung = test system: NCI-H460 lung
NCI-H522 lung = test system: NCI-H522 lung
NCI/ADR-RES ovarian = test system: NCI/ADR-RES ovarian
OVCAR-3 ovarian = test system: OVCAR-3 ovarian
OVCAR-4 ovarian = test system: OVCAR-4 ovarian
OVCAR-5 ovarian = test system: OVCAR-5 ovarian
OVCAR-8 ovarian = test system: OVCAR-8 ovarian
PC-3 prostate = test system: PC-3 prostate
RPMI-8226 leukemia = test system: RPMI-8226 leukemia
RXF 393 renal = test system: RXF 393 renal
SF-268 CNS = test system: SF-268 CNS
SF-295 CNS = test system: SF-295 CNS
SF-539 CNS = test system: SF-539 CNS
SK-MEL-2 melanoma = test system: SK-MEL-2 melanoma
SK-MEL-28 melanoma = test system: SK-MEL-28 melanoma
SK-MEL-5 melanoma = test system: SK-MEL-5 melanoma
SK-OV-3 ovarian = test system: SK-OV-3 ovarian
SN12C renal = test system: SN12C renal
SNB-19 CNS = test system: SNB-19 CNS
SNB-75 CNS = test system: SNB-75 CNS
SR leukemia = test system: SR leukemia
SW-620 colon = test system: SW-620 colon
T-47D breast = test system: T-47D breast
TK-10 renal = test system: TK-10 renal
U251 CNS = test system: U251 CNS
UACC-257 melanoma = test system: UACC-257 melanoma
UACC-62 melanoma = test system: UACC-62 melanoma
UO-31 renal = test system: UO-31 renal
HS 578T breast = test system: HS 578T breast

Compound: C/C(=C\c1ccccc1)C(=O)NCc1ccc(C(=O)NCCc2c[nH]c3ccccc23)cc1
- TGI (786-0 renal): > 100 µM
- TGI (A498 renal): > 100 µM
- TGI (A549 NSCLC): > 100 µM
- TGI (ACHN renal): > 100 µM
- TGI (BT-549 breast): > 100 µM
- TGI (CAKI-1 renal): > 100 µM
- TGI (CCRF-CEM leukemia): > 100 µM
- TGI (COLO 205 colon): > 100 µM
- TGI (DU-145 prostate): > 100 µM
- TGI (EKVX NSCLC): > 100 µM
- TGI (HCC-2998 colon): 96.3 µM
- TGI (HCT-116 colon): > 100 µM
- TGI (HCT-15 colon): > 100 µM
- TGI (HOP-62 NSCLC): > 100 µM
- TGI (HOP-92 NSCLC): > 100 µM
- TGI (HT29 colon): > 100 µM
- TGI (IGROV1 ovarian): > 100 µM
- TGI (K-562 leukemia): > 100 µM
- TGI (KM12 colon): > 100 µM
- TGI (LOX IMVI melanoma): > 100 µM
- TGI (M14 melanoma): > 100 µM
- TGI (MALME-3M melanoma): > 100 µM
- TGI (MCF7 breast): > 100 µM
- TGI (MDA-MB-231 breast): > 100 µM
- TGI (MDA-MB-435): > 100 µM
- TGI (MDA-N): > 100 µM
- TGI (MOLT-4 leukemia): > 100 µM
- TGI (NCI-H226 lung): > 100 µM
- TGI (NCI-H23 lung): > 100 µM
- TGI (NCI-H460 lung): > 100 µM
- TGI (NCI-H522 lung): > 100 µM
- TGI (NCI/ADR-RES ovarian): > 100 µM
- TGI (OVCAR-3 ovarian): > 100 µM
- TGI (OVCAR-4 ovarian): > 100 µM
- TGI (OVCAR-5 ovarian): > 100 µM
- TGI (OVCAR-8 ovarian): > 100 µM
- TGI (PC-3 prostate): > 100 µM
- TGI (RPMI-8226 leukemia): > 100 µM
- TGI (RXF 393 renal): > 100 µM
- TGI (SF-268 CNS): > 100 µM
- TGI (SF-295 CNS): > 100 µM
- TGI (SF-539 CNS): > 100 µM
- TGI (SK-MEL-2 melanoma): > 100 µM
- TGI (SK-MEL-28 melanoma): > 100 µM
- TGI (SK-MEL-5 melanoma): > 100 µM
- TGI (SK-OV-3 ovarian): > 100 µM
- TGI (SN12C renal): > 100 µM
- TGI (SNB-19 CNS): > 100 µM
- TGI (SNB-75 CNS): > 100 µM
- TGI (SR leukemia): > 100 µM
- TGI (SW-620 colon): > 100 µM
- TGI (T-47D breast): > 100 µM
- TGI (TK-10 renal): > 100 µM
- TGI (U251 CNS): > 100 µM
- TGI (UACC-257 melanoma): 78.2 µM
- TGI (UACC-62 melanoma): 53.7 µM
- TGI (UO-31 renal): > 100 µM

Compound: CC1(C)Oc2ccc3c(=O)c4ccccc4oc3c2C1C(=O)O (configuration not stated)
- TGI (786-0 renal): > 100 µM
- TGI (A498 renal): > 100 µM
- TGI (A549 NSCLC): > 100 µM
- TGI (BT-549 breast): > 100 µM
- TGI (CAKI-1 renal): > 100 µM
- TGI (CCRF-CEM leukemia): > 100 µM
- TGI (COLO 205 colon): > 100 µM
- TGI (DU-145 prostate): > 100 µM
- TGI (EKVX NSCLC): > 100 µM
- TGI (HCC-2998 colon): > 100 µM
- TGI (HCT-116 colon): > 100 µM
- TGI (HOP-62 NSCLC): > 100 µM
- TGI (HS 578T breast): > 100 µM
- TGI (HT29 colon): > 100 µM
- TGI (IGROV1 ovarian): > 100 µM
- TGI (K-562 leukemia): > 100 µM
- TGI (M14 melanoma): > 100 µM
- TGI (MALME-3M melanoma): > 100 µM
- TGI (MCF7 breast): > 100 µM
- TGI (MDA-MB-231 breast): > 100 µM
- TGI (MDA-MB-435): > 100 µM
- TGI (MDA-N): > 100 µM
- TGI (MOLT-4 leukemia): > 100 µM
- TGI (NCI-H226 lung): > 100 µM
- TGI (NCI-H23 lung): > 100 µM
- TGI (NCI-H522 lung): > 100 µM
- TGI (NCI/ADR-RES ovarian): > 100 µM
- TGI (OVCAR-3 ovarian): > 100 µM
- TGI (OVCAR-4 ovarian): > 100 µM
- TGI (OVCAR-5 ovarian): > 100 µM
- TGI (OVCAR-8 ovarian): > 100 µM
- TGI (PC-3 prostate): > 100 µM
- TGI (RXF 393 renal): > 100 µM
- TGI (SF-268 CNS): > 100 µM
- TGI (SF-295 CNS): > 100 µM
- TGI (SF-539 CNS): > 100 µM
- TGI (SK-MEL-2 melanoma): > 100 µM
- TGI (SK-MEL-5 melanoma): > 100 µM
- TGI (SK-OV-3 ovarian): > 100 µM
- TGI (SN12C renal): > 100 µM
- TGI (T-47D breast): > 100 µM
- TGI (TK-10 renal): > 100 µM
- TGI (U251 CNS): > 100 µM
- TGI (UACC-257 melanoma): > 100 µM
- TGI (UACC-62 melanoma): > 100 µM
